Patent publication US20260256694A1, “Multilamellar Vesicle Drug Formulation” (Nanostar Pharmaceuticals Ltd., priority 2022, published 2026)

Test: Pharmacokinetics after oral gavage in mice
Conditions: 10 mg/kg
Description: Concentrations of drugs and lipids were simultaneously quantified by a ACQUITY UPLC H-Class System (Waters, Milford, MA)^15. The mobile phase was composed of solvent A: 0.1% trifluoroacetic acid (TFA) in water and solvent B: 0.1% TFA in methanol. […] Concentrations of drugs and lipids were measured by integrating the peak area under the curve and compared to the standard curves. For plasma CQ quantitation, a Waters QDa mass spectrometry detector was used. Ionization was carried out at 250° C.
MLV-CQ drug formulation of the present invention or free CQ (dissolved in saline) was administered through oral gavage to mice at 10 mg CQ/kg (50 mg lipid/kg). […] Plasma was isolated by centrifugation at 4° C. for 10 min at 10,000 g. Forty-five L of plasma was mixed with 300 μL ethanol, vortexed for 30 s, placed on ice for 30 min, and centrifuged twice at 12,500 rpm for 5 min. The supernatant (280 μL) was collected, lyophilized, and reconstituted in 45 μL ethanol. Ten L of the sample was then injected into the UPLC to measure CQ concentration. Pharmacokinetics parameters and AUC were analyzed using PK solver^16 and GraphPad Prisim version 8.0 (GraphPad Software, San Diego, CA, USA), respectively.

## CCN(CC)CCCC(C)Nc1ccnc2cc(Cl)ccc12 (stereo not shown) [CQ solution, chloroquine diphosphate]
  CQ in plasma at 24 h: completely eliminated
